Like-named read-outs stand apart in the source and are kept apart here. Values belong to the molecule of their own block, whether it stands above or below them.
Key:
[1] = 16-membered ring
[2] = test system: Phosphorylation of ERK1/2 in AsPC-1 cells; experiment: Phospho-ERK1/2 MSD Assay; assay type: cell-based, human; conditions: read-out: 2 h p-ERK (AsPC-1 cells), IC50
Description: Sixteen hours prior to compound treatment, AsPC-1 cells were seeded in 96-well cell culture plates at a density of 25,000 cells/well and incubated at 37° C., 5% CO2. A compound dose-response titration was diluted in growth media, added to appropriate wells of a cell culture plate, and then incubated at 37° C., 5% CO2 for 2 hours. […] Phosphorylation of ERK1/2 in compound-treated lysates was assayed using Phospho-ERK 1/2 Whole Cell Lysate kits (Meso Scale Discovery K151DWD) according to the manufacturer's protocol. Assay plates were read on a Meso Scale Discovery Sector Imager 6000, and data were analyzed using a 4-parameter logistic model to calculate IC50 values.

AsPC-1 cells = experiment: AsPC-1 CTG Assay (CellTiter-Glo cell viability, 72 h); assay type: cell-based, human; conditions: read-out: G12D/C/V Cell Proliferation CTG (72 h) AsPC-1
Description: (§1) AsPC-1 and SW620 CTG Assay Protocols
(§2) Serially-diluted compound or DMSO was added to the cells, and plates were incubated at 37° C., 5% CO2 for 72 h. Cell viability was measured using a CellTiter-Glo® Luminescent Cell Viability Assay kit (Promega) according to the manufacturer's protocol. The luminescence signal of treated samples was normalized to DMSO control, and data were analyzed using a 4-parameter logistic model to calculate IC50 values.

SW620 cells = experiment: SW620 CTG Assay (CellTiter-Glo cell viability, 72 h); assay type: cell-based; conditions: Homo sapiens, SW-620, third value of cell, read-out: G12D/C/V Cell Proliferation CTG (72 h) SW620
Description: as §1
as §2, with “AsPC-1 (human pancreatic adenocarcinoma; ATCC CRL-1682) or SW620 (human colon adenocarcinoma; ATCC CCL-227) cells were cultured in RPMI 1640 medium containing 10% fetal bovine serum and 1× penicillin/streptomycin/L-glutamine. Cells were seeded in 384-well plates at a density of 3.33E+04 cells/mL and incubated at 37° C., 5% CO2, overnight. Serially-diluted” for “Serially-diluted”

MIA PaCa-2 cells = experiment: MIA PaCa-2 CTG Assay (CellTiter-Glo cell viability, 72 h); assay type: cell-based, human; conditions: second value of cell, read-out: G12D/C/V Cell Proliferation CTG (72 h) Mia PaCa-2
Description: MIA PaCa-2 CTG Assay Protocol
as §2

[3] = test system: phospho-ERK1/2 in PANC 04.03 tumors; experiment: Tumor Pharmacodynamic Assay (p-ERK inhibition in PANC 04.03 tumor-bearing mice); assay type: in vivo; conditions: PANC 04.03 tumor-bearing female athymic nude mice; single oral dose 100 mg/kg; tumors harvested 2 hours later; p-ERK1/2 normalized to total ERK1/2, relative to vehicle group
Description: Tumor Pharmacodynamic Assays
Inhibitor pharmacodynamic effects were assessed in PANC 04.03 tumor-bearing mice. PANC 04.03 tumor cells (5.0E+06 cells) were injected subcutaneously into the flank of female athymic nude mice in a mixture with Matrigel (BD Bioscience). Mice received a single oral dose of either vehicle or inhibitors (100 mg/kg) when the average tumor size reached ˜300-600 mm^3 (n=3/group) and harvested 2 hours later. Tumor samples were collected, snap frozen, and processed for analysis by pulverizing with a cryoPREP® Dry Impactor (Covaris). Pulverized samples were resuspended in RIPA lysis buffer containing protease and phosphatase inhibitors and homogenized. Cleared lysates were analyzed using phospho-ERK1/2 and total ERK1/2 whole cell lysate kits (Meso Scale Discovery) according to the manufacturer's protocol. Phospho-ERK1/2 signal was normalized to total ERK1/2 signal for a given sample, and percent inhibition of p-ERK was calculated relative to the vehicle group.

Compound: Cc1cc2c(cnn2C2CCCCO2)c2c1CCCn1ncc(n1)C1CCCN(C1)c1nc(OC[C@@]34CCCN3C[C@H](F)C4)nc3c(F)c-2ncc13 (stereo partly shown)
ring closure, isolated yield ([1]; from Cc1cc2c(cnn2C2CCCCO2)c(-c2ncc3c(N4CCCC(c5cn[nH]n5)C4)nc(OC[C@@]45CCCN4C[C@H](F)C5)nc3c2F)c1CCCCl, other bond, K2CO3/TBAI, MeCN, 6.9 mM, 85.0 °C, 3.0 h): 31%

IC50 ([2]; Homo sapiens, ASPC1, 2 h, AsPC-1 cells, 2 h compound treatment): 3.2 nM
IC50 (AsPC-1 cells; Homo sapiens, ASPC1, 72 h, AsPC-1 cells, 72 h, first value of cell): 40 nM
IC50 (SW620 cells): 8 nM
IC50 (MIA PaCa-2 cells; Homo sapiens): 26 nM
Compound: Fc1c2ncc3c(nc(OC[C@@]45CCCN4C[C@H](F)C5)nc13)N1CCC[C@]3(C1)C[C@H](C3)OCCCCc1c(Cl)cc3[nH]ncc3c1-2 [Example 260, (1S,3R)-10-Chloro-32-fluoro-24-(((2R,7aS)-2-fluorotetrahydro-1H-pyrrolo[1,2-a]pyrrol-7a(5H)-yl)methoxy)-4-oxa-13,14,19,23,25,27-hexaazaheptacyclo[25.3.1.1˜1,3˜.1˜18,22˜.0˜9,17˜.0˜12,16˜.0˜21,26˜]tritriaconta-9,11,14,16,18(32),19,21,23,25-nonaene bis(2,2,2-trifluoroacetate)]

Compound: O=C1COCCCc2c(Cl)cc3[nH]ncc3c2-c2ncc3c(nc(OC[C@@]45CCCN4C[C@H](F)C5)nc3c2F)N2CC[C@H]3CCN1[C@H]3C2 [Example 168]
IC50 [2]: 1.3 nM
IC50 (AsPC-1 cells): 10 nM
p-ERK (% inhibition) 2 hr. [3]: 65%

IC50 ([2]; AsPC-1 cells, 2 h compound treatment): 7.8 nM
IC50 (AsPC-1 cells; AsPC-1 cells, 72 h, first value of cell): 13 nM
IC50 (MIA PaCa-2 cells): 7 nM
Compound: O=C1OCCc2c(Cl)cc3[nH]ncc3c2-c2ncc3c(nc(OC[C@@]45CCCN4C[C@H](F)C5)nc3c2F)N2CCO[C@]3(C2)C[C@H](C3)O1 [Example 248, (1R.3R)-10-chloro-32-fluoro-24-(((2R,7aS)-2-fluorotetrahydro-1H-pyrrolo[1,2-α]pyrrol-7a(SH)-yl)methoxy)-4,6,30-trioxa-1.3,14,19,23,25,27-hexaazaheptacyclo[25.3.1.1~1,3~.1~18,22~.0~9.17~.0~12,16~.0~21,26~]tritriaconta-9,11,14,16,18(32),19,21,23,25-nonaen-5-one]
p-ERK (% inhibition) 2 hr. [3]: 85%

Compound: Cc1cc2c(cnn2C2CCCCO2)c2c1CCCCC(=O)N[C@@H]1CCCN(C1)c1nc(OC[C@@]34CCCN3C[C@H](F)C4)nc3c(F)c-2ncc13 (stereo partly shown)
ring closure, isolated yield ([1]; from Cc1cc2c(cnn2C2CCCCO2)c(-c2ncc3c(N4CCC[C@@H](N)C4)nc(OC[C@@]45CCCN4C[C@H](F)C5)nc3c2F)c1CCCCC(=O)O, amide bond, HATU/DIEA, DMA, 4.7 mM, 25.0 °C, 1.5 h): 22%

Reference: patent US20260174769A1, “MACROCYCLIC COMPOUNDS AND METHODS OF USE” (AMGEN INC., priority 2022, published 2026)
